Reference: ChEMBL document CHEMBL1201862, “PubChem BioAssay data set” (2004)
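Step 1: Grow cells in 96-well plates. Step 2: Expose to compound for 48 hours at 5 concentrations. Step 3: Interpolate endpoints linearly; if unreached, use highest concentration. GI50 = concentration required for 50% inhibition of growth.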 Calls of active or inactive are those of the source. Cut-off read from the data, not from the text of the source: active = GI50 up to about 1.1 µM and inactive = higher.

What was measured:
Test in all cases: inhibition of tumour cell growth, NCI panel, 48 h
HT-29 = test system: HT-29
SR = test system: SR
HCT-116 = test system: HCT-116
Hs-578T = test system: Hs-578T
A498 = test system: A498
SF-268 = test system: SF-268
BT-549 = test system: BT-549
SK-MEL-5 = test system: SK-MEL-5
A549 = test system: A549
SK-MEL-2 = test system: SK-MEL-2
SNB-19 = test system: SNB-19
TK-10 = test system: TK-10
HOP-92 = test system: HOP-92
HOP-62 = test system: HOP-62
M14 = test system: M14
KM12 = test system: KM12
SNB-75 = test system: SNB-75
CAKI-1 = test system: CAKI-1
UO-31 = test system: UO-31
HL-60 = test system: HL-60

Row | Structure (SMILES) | GI50 (HT-29) | GI50 (SR) | GI50 (HCT-116) | GI50 (Hs-578T) | GI50 (A498) | GI50 (SF-268) | GI50 (BT-549) | GI50 (SK-MEL-5) | GI50 (A549) | GI50 (SK-MEL-2) | GI50 (SNB-19) | GI50 (TK-10) | GI50 (HOP-92) | GI50 (HOP-62) | GI50 (M14) | GI50 (KM12) | GI50 (SNB-75) | GI50 (CAKI-1) | GI50 (UO-31) | GI50 (HL-60)
1 | Cc1nc2ccccc2nc1N1CCCC1 | > 100 µM (inactive) | > 100 µM (inactive) | > 100 µM (inactive) | > 100 µM (inactive) | > 100 µM (inactive) | > 100 µM (inactive) | > 100 µM (inactive) | > 100 µM (inactive) | > 100 µM (inactive) | > 100 µM (inactive) | > 100 µM (inactive) | > 100 µM (inactive) | > 100 µM (inactive) | > 100 µM (inactive) | > 100 µM (inactive) | > 100 µM (inactive) | 68.2 µM (inactive) | > 100 µM (inactive) | – | –
2 | Nc1nc(-c2cc(-c3cccc4ccccc34)nc(N)n2)cc(-c2cccc3ccccc23)n1 | > 100 µM (inactive) | > 100 µM (inactive) | > 100 µM (inactive) | > 100 µM (inactive) | > 100 µM (inactive) | > 100 µM (inactive) | > 100 µM (inactive) | > 100 µM (inactive) | > 100 µM (inactive) | > 100 µM (inactive) | > 100 µM (inactive) | > 100 µM (inactive) | > 100 µM (inactive) | > 100 µM (inactive) | > 100 µM (inactive) | > 100 µM (inactive) | – | > 100 µM (inactive) | > 100 µM (inactive) | > 100 µM (inactive)
3 | O=c1c2cccnc2[s+]([O-])n1Cc1ccccc1 (stereo unspecified) | > 100 µM (inactive) | > 100 µM (inactive) | > 100 µM (inactive) | > 100 µM (inactive) | > 100 µM (inactive) | > 100 µM (inactive) | > 100 µM (inactive) | > 100 µM (inactive) | > 100 µM (inactive) | – | > 100 µM (inactive) | > 100 µM (inactive) | > 100 µM (inactive) | – | > 100 µM (inactive) | > 100 µM (inactive) | > 100 µM (inactive) | > 100 µM (inactive) | > 100 µM (inactive) | > 10 µM (inactive)
4 | COc1cc2c(C)cc(O)cc2c2cc(O)c(C)cc12 | 14.7 µM (inactive) | 1.53 µM (inactive) | 10.7 µM (inactive) | 19.1 µM (inactive) | 11.2 µM (inactive) | 13.7 µM (inactive) | 12.7 µM (inactive) | 10.5 µM (inactive) | 12.9 µM (inactive) | 14.8 µM (inactive) | 11.5 µM (inactive) | 13.3 µM (inactive) | 12 µM (inactive) | 5.57 µM (inactive) | 1.94 µM (inactive) | 5.24 µM (inactive) | – | 11.7 µM (inactive) | 9.66 µM (inactive) | 2.96 µM (inactive)
5 | O=C1CSc2ccnc(=O)n21 | – | > 100 µM (inactive) | > 100 µM (inactive) | > 100 µM (inactive) | > 100 µM (inactive) | > 100 µM (inactive) | > 100 µM (inactive) | > 100 µM (inactive) | > 100 µM (inactive) | – | > 100 µM (inactive) | > 100 µM (inactive) | > 100 µM (inactive) | > 100 µM (inactive) | > 100 µM (inactive) | – | 93.5 µM (inactive) | > 100 µM (inactive) | > 100 µM (inactive) | > 100 µM (inactive)
6 | O=C(C(=C(I)I)c1ccccc1)c1ccccc1 | 33.6 µM (inactive) | 14.2 µM (inactive) | 17.1 µM (inactive) | 16.1 µM (inactive) | 13.1 µM (inactive) | 22.6 µM (inactive) | 55.7 µM (inactive) | 16.8 µM (inactive) | 36.9 µM (inactive) | 16.1 µM (inactive) | 29.9 µM (inactive) | 28.4 µM (inactive) | 33 µM (inactive) | 19.2 µM (inactive) | 25 µM (inactive) | – | – | 38.4 µM (inactive) | 20.8 µM (inactive) | 13.2 µM (inactive)
7 | N=C(N)NC(=N)Nc1c(F)c(F)c(F)c(F)c1F | 96.8 µM (inactive) | 17.3 µM (inactive) | 70.5 µM (inactive) | 95.3 µM (inactive) | > 100 µM (inactive) | > 100 µM (inactive) | 92.3 µM (inactive) | 44.8 µM (inactive) | > 100 µM (inactive) | > 100 µM (inactive) | > 100 µM (inactive) | 95.9 µM (inactive) | 36.7 µM (inactive) | > 100 µM (inactive) | 21.1 µM (inactive) | > 100 µM (inactive) | > 100 µM (inactive) | > 100 µM (inactive) | > 100 µM (inactive) | –
8 | COc1cc(Nc2nc3ccccc3nc2C(=O)O)cc(OC)c1OC | – | > 100 µM (inactive) | > 100 µM (inactive) | 20.8 µM (inactive) | 35 µM (inactive) | 28.3 µM (inactive) | 89.9 µM (inactive) | 49.2 µM (inactive) | > 100 µM (inactive) | – | 70.6 µM (inactive) | 16.3 µM (inactive) | 25.9 µM (inactive) | 22.8 µM (inactive) | 73.6 µM (inactive) | > 100 µM (inactive) | 47.2 µM (inactive) | 16.4 µM (inactive) | 21.6 µM (inactive) | > 100 µM (inactive)
9 | CC(C)(Cl)C(Br)CC/C(=C/CCl)CBr.CC(C)(Cl)C(Br)CC/C(=C\CCl)CBr (stereo unspecified) | 1.85 µM (inactive) | 1.29 µM (inactive) | 1.77 µM (inactive) | 3.67 µM (inactive) | 4.94 µM (inactive) | 1.8 µM (inactive) | 3.05 µM (inactive) | 3.1 µM (inactive) | 14.4 µM (inactive) | 3.21 µM (inactive) | 2.1 µM (inactive) | 2.26 µM (inactive) | 2.07 µM (inactive) | 4.1 µM (inactive) | 1.9 µM (inactive) | 1.83 µM (inactive) | 2.9 µM (inactive) | – | 1.6 µM (inactive) | 0.802 µM (active)
10 | CCCC[Si](CCCC)(CCCC)O[C@@H](/C=C/C(=O)OCC)[C@H](Cc1ccccc1)O[Si](CCCC)(CCCC)CCCC | > 100 µM (inactive) | > 100 µM (inactive) | > 100 µM (inactive) | > 100 µM (inactive) | > 100 µM (inactive) | > 100 µM (inactive) | > 100 µM (inactive) | – | > 100 µM (inactive) | > 100 µM (inactive) | > 100 µM (inactive) | 40.1 µM (inactive) | > 100 µM (inactive) | > 100 µM (inactive) | – | > 100 µM (inactive) | > 100 µM (inactive) | > 100 µM (inactive) | > 100 µM (inactive) | –
11 | CC(C)=CCC/C(C)=C/COC(C)(C)C1=CCC(C)CC1.CC(C)=CCC/C(C)=C/COC1CC(C)CCC1=C(C)C (stereo unspecified) | > 100 µM (inactive) | 18.9 µM (inactive) | > 100 µM (inactive) | > 100 µM (inactive) | > 100 µM (inactive) | > 100 µM (inactive) | > 100 µM (inactive) | > 100 µM (inactive) | > 100 µM (inactive) | – | > 100 µM (inactive) | > 100 µM (inactive) | > 100 µM (inactive) | > 100 µM (inactive) | > 100 µM (inactive) | > 100 µM (inactive) | > 100 µM (inactive) | > 100 µM (inactive) | > 100 µM (inactive) | 22 µM (inactive)
12 | CCC1c2[nH]c3ccccc3c2C[C@H]2C(=O)N3CCC[C@H]3C(=O)N12 (stereo partly specified) | > 100 µM (inactive) | 59.3 µM (inactive) | 60.7 µM (inactive) | > 100 µM (inactive) | > 100 µM (inactive) | > 100 µM (inactive) | > 100 µM (inactive) | 30.4 µM (inactive) | > 100 µM (inactive) | > 100 µM (inactive) | > 100 µM (inactive) | > 100 µM (inactive) | > 100 µM (inactive) | > 100 µM (inactive) | > 100 µM (inactive) | 71.1 µM (inactive) | – | > 100 µM (inactive) | > 100 µM (inactive) | > 100 µM (inactive)
13 | Cn1c(-c2ccccc2)cc(-c2ccc3c(c2)OCO3)c1-c1cccs1 | > 100 µM (inactive) | > 100 µM (inactive) | 96.8 µM (inactive) | > 100 µM (inactive) | > 100 µM (inactive) | > 100 µM (inactive) | > 100 µM (inactive) | > 100 µM (inactive) | > 100 µM (inactive) | > 100 µM (inactive) | > 100 µM (inactive) | > 100 µM (inactive) | > 100 µM (inactive) | > 100 µM (inactive) | > 100 µM (inactive) | > 100 µM (inactive) | > 100 µM (inactive) | – | > 100 µM (inactive) | > 100 µM (inactive)
14 | Cc1ccc(S(=O)(=O)n2cnc(CC(NC(=O)C3CCC(=O)N3C(=O)OCc3ccccc3)C(=O)N3CCCC3C(=O)NN)c2)cc1 (stereo unspecified) | > 100 µM (inactive) | > 100 µM (inactive) | > 100 µM (inactive) | > 100 µM (inactive) | > 100 µM (inactive) | – | > 100 µM (inactive) | > 100 µM (inactive) | > 100 µM (inactive) | > 100 µM (inactive) | 48.8 µM (inactive) | > 100 µM (inactive) | > 100 µM (inactive) | > 100 µM (inactive) | > 100 µM (inactive) | > 100 µM (inactive) | > 100 µM (inactive) | – | 1.02 µM (active) | > 100 µM (inactive)
15 | COc1ccc2[nH]c3c(c2c1)CC(=O)N1CCC[C@H](C1)CC31OCCCO1 | > 100 µM (inactive) | > 100 µM (inactive) | > 100 µM (inactive) | 86.7 µM (inactive) | > 100 µM (inactive) | > 100 µM (inactive) | > 100 µM (inactive) | > 100 µM (inactive) | > 100 µM (inactive) | > 100 µM (inactive) | > 100 µM (inactive) | > 100 µM (inactive) | 55 µM (inactive) | > 100 µM (inactive) | > 100 µM (inactive) | > 100 µM (inactive) | 86.9 µM (inactive) | > 100 µM (inactive) | > 100 µM (inactive) | –
